According to patent publication US7109193B2, “Tricyclic diazepines tocolytic oxytocin receptor antagonists” (Wyeth, priority 2001, dated 2006):

melting point [°C] | SMILES
201 to 204 | COc1cc(-c2ccccc2C)ccc1C(=O)N1Cc2ccc(C(=O)O)n2Cc2ccccc21
233 to 235 | Cc1cc(C(=O)N2Cc3ccc(C(=O)O)n3Cc3ccccc32)ccc1-c1ccccc1C(F)(F)F
207 to 208 | COc1cc(-c2ccccc2F)c(Cl)cc1C(=O)N1Cc2ccc(C(=O)O)n2Cc2ccccc21
